Source: BigSolDB 2.1

C[C@@H]1O[C@@H]1P(=O)([O-])[O-].[Na+].[Na+]
solubility (mole fraction)
Conditions	283.15 K	288.15 K	293.15 K	298.15 K	303.15 K	308.15 K	313.15 K	318.15 K	323.15 K
in DMF	0.000606	0.000532	0.000481	0.000443	0.000396	0.000358	0.000339	0.000312	0.000291
in acetone	0.000186	0.00016	0.000138	0.000115	9.72e-05	8.3e-05	7.09e-05	6.07e-05	5.47e-05
in cyclohexane	0.000403	0.000353	0.0003	0.000252	0.000226	0.000196	0.000175	0.000151	0.000128
in ethanol	0.00109	0.000934	0.000769	0.000643	0.000548	0.000463	0.000383	0.000316	0.000266
in methanol	0.0177	0.0165	0.0152	0.0138	0.0129	0.0121	0.0111	0.0105	0.00984
in n-propanol	0.000108	8.01e-05	6.19e-05	4.52e-05	3.09e-05	1.95e-05	1.34e-05	1.04e-05	7.1e-06
